Results reported in PubChem BioAssay AID1963969 (Molecular Pharmacology Branch, DTP, NCI, 2024).

System: 817829-284-R-J1-PDC multi-cell spheroid viability
Test: Anticancer human tumor 817829-284-R-J1-PDC patient-derived colon adenocarcinoma cell line growth inhibition [PI3K]
Conditions: for viability, T/C: stronger effect = lower value; active = viability on the fitted dose curve at most 10% of control; inactive = the rest
Method in brief: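 Stroma-containing spheroids: tumor line, pooled-donor HUVEC, hMSC. Treatments: targeted agents with PI3K inhibitors. Dosing: clinically relevant, half-log spacing, 10 microM ceiling without known Cmax. Read-out: cell viability.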

[1] = curve of first compound, second compound 0.0316 µM
[2] = curve of first compound, second compound 0.1 µM
[3] = curve of first compound, second compound 0.316 µM
[4] = curve of first compound, second compound 1 µM
[5] = curve of first compound, second compound 3.16 µM
[6] = curve of first compound, second compound 10 µM
[7] = second compound 0.0316 µM, first compound 0.0316 µM
[8] = second compound 0.0316 µM, first compound 0.1 µM
[9] = second compound 0.0316 µM, first compound 0.316 µM
[10] = second compound 0.0316 µM, first compound 1 µM
[11] = second compound 0.0316 µM, first compound 3.16 µM
[12] = second compound 0.0316 µM, first compound 10 µM
[13] = second compound 0.1 µM, first compound 0.0316 µM
[14] = second compound 0.1 µM, first compound 0.1 µM
[15] = second compound 0.1 µM, first compound 0.316 µM
[16] = second compound 0.1 µM, first compound 1 µM
[17] = second compound 0.1 µM, first compound 3.16 µM
[18] = second compound 0.1 µM, first compound 10 µM
[19] = second compound 0.316 µM, first compound 0.0316 µM
[20] = second compound 0.316 µM, first compound 0.1 µM
[21] = second compound 0.316 µM, first compound 0.316 µM
[22] = second compound 0.316 µM, first compound 1 µM
[23] = second compound 0.316 µM, first compound 3.16 µM
[24] = second compound 0.316 µM, first compound 10 µM
[25] = second compound 1 µM, first compound 0.0316 µM
[26] = second compound 1 µM, first compound 0.1 µM
[27] = second compound 1 µM, first compound 0.316 µM
[28] = second compound 1 µM, first compound 1 µM
[29] = second compound 1 µM, first compound 3.16 µM
[30] = second compound 1 µM, first compound 10 µM
[31] = second compound 3.16 µM, first compound 0.0316 µM
[32] = second compound 3.16 µM, first compound 0.1 µM
[33] = second compound 3.16 µM, first compound 0.316 µM
[34] = second compound 3.16 µM, first compound 1 µM
[35] = second compound 3.16 µM, first compound 3.16 µM
[36] = second compound 3.16 µM, first compound 10 µM
[37] = second compound 10 µM, first compound 0.0316 µM
[38] = second compound 10 µM, first compound 0.1 µM
[39] = second compound 10 µM, first compound 0.316 µM
[40] = second compound 10 µM, first compound 1 µM
[41] = second compound 10 µM, first compound 3.16 µM
[42] = second compound 10 µM, first compound 10 µM
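Note: spheroids exposed to agents for seven days before readout.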
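Throughout, for viability, T/C: percent of vehicle DMSO control viability which is 100%.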

CNC(=O)c1ccc(N2C(=S)N(c3ccc(C#N)c(C(F)(F)F)c3)C(=O)C2(C)C)cc1F + Cc1nc(NC(=O)N2CCCC2C(N)=O)sc1-c1ccnc(C(C)(C)C(F)(F)F)c1
6.96 µM: IC50 [4]
inactive: viability, T/C [7] 95.7% | viability, T/C [8] 102% | viability, T/C [9] 96.2% | viability, T/C [10] 90.2% | viability, T/C [11] 67.6% | viability, T/C [12] 84.6% | viability, T/C [13] 69% | viability, T/C [14] 77.8% | viability, T/C [15] 87.4% | viability, T/C [16] 69.3% | viability, T/C [17] 56.4% | viability, T/C [18] 68.2% | viability, T/C [19] 106% | viability, T/C [20] 85.5% | viability, T/C [21] 68.8% | viability, T/C [22] 70.6% | viability, T/C [23] 77.2% | viability, T/C [24] 63.3% | viability, T/C [25] 60% | viability, T/C [26] 73.6% | viability, T/C [27] 68.7% | viability, T/C [28] 107% | viability, T/C [29] 63.3% | viability, T/C [30] 43.8% | viability, T/C [31] 67.3% | viability, T/C [32] 77.8% | viability, T/C [33] 81.8% | viability, T/C [34] 58.3% | viability, T/C [35] 48.5% | viability, T/C [36] 34.5% | viability, T/C [37] 60% | viability, T/C [38] 70% | viability, T/C [39] 54.8% | viability, T/C [40] 52.6% | viability, T/C [41] 38.3% | viability, T/C [42] 22.9%
2.35 µM: IC50 [5]
> 10 µM: IC50 [1] | IC50 [2] | IC50 [3]
1.15 µM: IC50 [6]

CC1(C)CCC(CN2CCN(c3ccc(C(=O)NS(=O)(=O)c4ccc(NCC5CCOCC5)c([N+](=O)[O-])c4)c(Oc4cnc5[nH]ccc5c4)c3)CC2)=C(c2ccc(Cl)cc2)C1 + Cc1nc(NC(=O)N2CCCC2C(N)=O)sc1-c1ccnc(C(C)(C)C(F)(F)F)c1
5.01 µM: IC50 [1]
4.74 µM: IC50 [5]
4.25 µM: IC50 [2]
2.43 µM: IC50 [6]
active: viability, T/C [12] 4.12% | viability, T/C [18] 4.95% | viability, T/C [24] 6.66% | viability, T/C [30] 3.59% | viability, T/C [36] 5.23% | viability, T/C [42] 2.17%
3.47 µM: IC50 [4]
3.89 µM: IC50 [3]
inactive: viability, T/C [7] 86.7% | viability, T/C [8] 69.7% | viability, T/C [9] 119% | viability, T/C [10] 42.6% | viability, T/C [11] 84.3% | viability, T/C [13] 97.7% | viability, T/C [14] 67.1% | viability, T/C [15] 98.3% | viability, T/C [16] 87.8% | viability, T/C [17] 65.6% | viability, T/C [19] 67.2% | viability, T/C [20] 58.8% | viability, T/C [21] 72.7% | viability, T/C [22] 70.4% | viability, T/C [23] 58.6% | viability, T/C [25] 65.9% | viability, T/C [26] 67.7% | viability, T/C [27] 82.7% | viability, T/C [28] 72.6% | viability, T/C [29] 54.1% | viability, T/C [31] 73.6% | viability, T/C [32] 62.2% | viability, T/C [33] 104% | viability, T/C [34] 72.2% | viability, T/C [35] 74.2% | viability, T/C [37] 81.1% | viability, T/C [38] 89.8% | viability, T/C [39] 57.6% | viability, T/C [40] 78.8% | viability, T/C [41] 42%

Cc1nc(NC(=O)N2CCCC2C(N)=O)sc1-c1ccnc(C(C)(C)C(F)(F)F)c1 (stereo unspecified)
> 10 µM: IC50 (compound alone, run of 04/24/2023)
inactive: viability, T/C (compound 10 µM) 68.7% [middle of 6 runs]
